How the values were obtained:
KM12 = test: cells; format: cell-based; conditions: Homo sapiens; KM12; 10 μM; read-out: growth inhibition % (GI%)
OVCAR-4 = test: cells; format: cell-based; conditions: Homo sapiens; OVCAR-4; 10 μM; read-out: growth inhibition % (GI%)
LOX IMIV = test: cells; format: cell-based; conditions: Homo sapiens, 60 cell; LOX IMIV; 10 μM; read-out: growth inhibition % (GI%)
SK-OV-3 = test: cells; format: cell-based; conditions: Homo sapiens; SK-OV-3; 10 μM; read-out: growth inhibition % (GI%)
SNB-75 = test: cells; format: cell-based; conditions: Homo sapiens; SNB-75; 10 μM; read-out: growth inhibition % (GI%)
786-0 = test: cells; format: cell-based; conditions: Homo sapiens; 786-0; 10 μM; read-out: growth inhibition % (GI%)
COLO-205 = test: cells; format: cell-based; conditions: Homo sapiens; COLO-205; 10 μM; read-out: growth inhibition % (GI%)
CCRF-CEM = test: cells; format: cell-based; conditions: Homo sapiens, 10 μM, read-out: growth inhibition % (GI%)
NCI/ADR-RES = test: cells; format: cell-based; conditions: Homo sapiens, 10 μM, read-out: growth inhibition % (GI%)
PC-3 = test: cells; format: cell-based; conditions: Homo sapiens; PC-3; 10 μM; read-out: growth inhibition % (GI%)
SR = test: cells; format: cell-based; conditions: Homo sapiens, 10 μM, read-out: growth inhibition % (GI%)
TK-10 = test: cells; format: cell-based; conditions: Homo sapiens; TK-10; 10 μM; read-out: growth inhibition % (GI%)
RPMI-8226 = test: cells; format: cell-based; conditions: Homo sapiens; RPMI-8226; 10 μM; read-out: growth inhibition % (GI%)
MOLT-4 = test: cells; format: cell-based; conditions: Homo sapiens; MOLT-4; 10 μM; read-out: growth inhibition % (GI%)
OVCAR-3 = test: NCI 60 cell line antiproliferative screening (SRB), Ovarian cancer; conditions: Homo sapiens, OVCAR-3, read-out: growth inhibition % (GI%)
A549/ATCC = test: cells; format: cell-based; conditions: Homo sapiens; A549/ATCC; 10 μM; read-out: growth inhibition % (GI%)
A498 = test: cells; format: cell-based; conditions: Homo sapiens; A498; 10 μM; read-out: growth inhibition % (GI%)
SW-620 = test: cells; format: cell-based; conditions: Homo sapiens; SW-620; 10 μM; read-out: growth inhibition % (GI%)
DU-145 = test: cells; format: cell-based; conditions: Homo sapiens; DU-145; 10 μM; read-out: growth inhibition % (GI%)
SNB-19 = test: cells; format: cell-based; conditions: Homo sapiens; SNB-19; 10 μM; read-out: growth inhibition % (GI%)
EKVX = test: cells; format: cell-based; conditions: Homo sapiens, 10 μM, read-out: growth inhibition % (GI%)
[1] = test system: panel of 60 tumour cell lines; test: NCI 60 cell line antiproliferative screening (SRB), whole panel or subpanels (means, ranges, words); format: cell-based, human; conditions: for antiproliferative activity against all tested cell lines: 10 μM single dose; for inhibition at 10 µM: Homo sapiens, 60 cell, mean over the cell line panel, read-out: Mean growth inhibition % (mean GI%)
HL-60(TB) = test: cells; format: cell-based; conditions: Homo sapiens; HL-60(TB); 10 μM; read-out: growth inhibition % (GI%)
NCI-H226 = test: cells; format: cell-based; conditions: Homo sapiens; NCI-H226; 10 μM; read-out: growth inhibition % (GI%)
UACC-62 = test: cells; format: cell-based; conditions: Homo sapiens; UACC-62; 10 μM; read-out: growth inhibition % (GI%)
HOP-62 = test: cells; format: cell-based; conditions: Homo sapiens; HOP-62; 10 μM; read-out: growth inhibition % (GI%)
HCT-15 = test: cells; format: cell-based; conditions: Homo sapiens; HCT-15; 10 μM; read-out: growth inhibition % (GI%)
NCI-H522 = test: cells; format: cell-based; conditions: Homo sapiens; NCI-H522; 10 μM; read-out: growth inhibition % (GI%)
SK-MEL-5 = test: cells; format: cell-based; conditions: Homo sapiens; SK-MEL-5; 10 μM; read-out: growth inhibition % (GI%)
MCF7 = test: cells; format: cell-based; conditions: Homo sapiens; MCF7; 10 μM; read-out: growth inhibition % (GI%)
SF-295 = test: cells; format: cell-based; conditions: Homo sapiens; SF-295; 10 μM; read-out: growth inhibition % (GI%)
IGROV1 = test: cells; format: cell-based; conditions: Homo sapiens, IGROV-1; IGROV1; 10 μM; read-out: growth inhibition % (GI%)
ACHN = test: cells; format: cell-based; conditions: Homo sapiens, 10 μM, read-out: growth inhibition % (GI%)
MDA-MB-468 = test: NCI 60 cell line antiproliferative screening (SRB), Breast cancer; conditions: Homo sapiens, MDA-MB-468, read-out: growth inhibition % (GI%)
U251 = test: cells; format: cell-based; conditions: Homo sapiens, U-251; U251; 10 μM; read-out: growth inhibition % (GI%)
MDA-MB-435 = test: cells; format: cell-based; conditions: Homo sapiens; MDA-MB-435; 10 μM; read-out: growth inhibition % (GI%)
HCC-2998 = test: cells; format: cell-based; conditions: Homo sapiens; HCC-2998; 10 μM; read-out: growth inhibition % (GI%)
HT29 = test: cells; format: cell-based; conditions: Homo sapiens, HT-29; HT29; 10 μM; read-out: growth inhibition % (GI%)
NCI-H460 = test: cells; format: cell-based; conditions: Homo sapiens; NCI-H460; 10 μM; read-out: growth inhibition % (GI%)
K-562 = test: cells; format: cell-based; conditions: Homo sapiens, K562; K-562; 10 μM; read-out: growth inhibition % (GI%)
BT-549 = test: cells; format: cell-based; conditions: Homo sapiens; BT-549; 10 μM; read-out: growth inhibition % (GI%)
HCT-116 = test: cells; format: cell-based; conditions: Homo sapiens; HCT-116; 10 μM; read-out: growth inhibition % (GI%)
SF-539 = test: cells; format: cell-based; conditions: Homo sapiens; SF-539; 10 μM; read-out: growth inhibition % (GI%)
SN12C = test: cells; format: cell-based; conditions: Homo sapiens, 10 μM, read-out: growth inhibition % (GI%)
SK-MEL-28 = test: cells; format: cell-based; conditions: Homo sapiens; SK-MEL-28; 10 μM; read-out: growth inhibition % (GI%)
NCI-H322M = test: cells; format: cell-based; conditions: Homo sapiens, 10 μM, read-out: growth inhibition % (GI%)

O=C(CSc1nc2ccccc2c(=O)n1-c1ccc(Cl)cc1)NN=Cc1ccc(Oc2ccc(Br)cc2)cc1 [6e, N'-(4–(4-bromophenoxy)benzylidene)-2-((3–(4-chlorophenyl)-4-oxo-3,4-dihydroquinazolin-2-yl)thio)acetohydrazide] showed an inhibition at 10 µM (KM12) of less than 15%, an inhibition at 10 µM (OVCAR-4) of less than 15% and an inhibition at 10 µM (LOX IMIV) of less than 15%. The inhibition at 10 µM (SK-OV-3) was less than 15%, the inhibition at 10 µM (SNB-75) was less than 15% and the inhibition at 10 µM (786-0) was less than 15%. It also gave an inhibition at 10 µM (COLO-205) of less than 15%, an inhibition at 10 µM (CCRF-CEM) of less than 15% and an inhibition at 10 µM (NCI/ADR-RES) of less than 15%. For the same compound, the inhibition at 10 µM (PC-3) was less than 15%, the inhibition at 10 µM (SR) was less than 15% and the inhibition at 10 µM (TK-10) was less than 15%. For the same compound, the inhibition at 10 µM (RPMI-8226) was less than 15%, the inhibition at 10 µM (MOLT-4) was less than 15% and the inhibition at 10 µM (OVCAR-3) was less than 15%. For the same compound, the inhibition at 10 µM (A549/ATCC) was less than 15%, the inhibition at 10 µM (A498) was 15.7% and the inhibition at 10 µM (SW-620) was less than 15%. For the same compound, the inhibition at 10 µM (DU-145) was less than 15%, the inhibition at 10 µM (SNB-19) was less than 15% and the inhibition at 10 µM (EKVX) was less than 15%. For the same compound, the “antiproliferative activity against all tested cell lines” value [1] was “abolishing the antiproliferative activity”, the inhibition at 10 µM [1] was less than 0% and the inhibition at 10 µM (HL-60(TB)) was less than 15%. For the same compound, the inhibition at 10 µM (NCI-H226) was less than 15%, the inhibition at 10 µM (UACC-62) was less than 15% and the inhibition at 10 µM (HOP-62) was less than 15%. For the same compound, the inhibition at 10 µM (HCT-15) was less than 15%, the inhibition at 10 µM (NCI-H522) was 13.4% and the inhibition at 10 µM (SK-MEL-5) was less than 15%. It also gave an inhibition at 10 µM (MCF7) of less than 15%, an inhibition at 10 µM (SF-295) of less than 15% and an inhibition at 10 µM (IGROV1) of less than 15%. The inhibition at 10 µM (ACHN) was less than 15%, the inhibition at 10 µM (MDA-MB-468) was less than 15% and the inhibition at 10 µM (U251) was less than 15%. The inhibition at 10 µM (MDA-MB-435) was less than 15%, the inhibition at 10 µM (HCC-2998) was less than 15% and the inhibition at 10 µM (HT29) was less than 15%. For the same compound, the inhibition at 10 µM (NCI-H460) was less than 15%, the inhibition at 10 µM (K-562) was less than 15% and the inhibition at 10 µM (BT-549) was less than 15%. For the same compound, the inhibition at 10 µM (HCT-116) was less than 15%, the inhibition at 10 µM (SF-539) was less than 15% and the inhibition at 10 µM (SN12C) was less than 15%. It also gave an inhibition at 10 µM (SK-MEL-28) of less than 15% and an inhibition at 10 µM (NCI-H322M) of less than 15%.
Work on CN1CCN(c2ccc(C=NNC(=O)CSc3nc4ccccc4c(=O)n3-c3ccccc3)cc2)CC1 [6i, N'-(4–(4-methylpiperazin-1-yl)benzylidene)-2-((4-oxo-3-phenyl-3,4-dihydroquinazolin-2-yl)thio) acetohydrazide] yielded an inhibition at 10 µM (KM12) of less than 15%, an inhibition at 10 µM (OVCAR-4) of less than 15% and an inhibition at 10 µM (LOX IMIV) of less than 15%. It also gave an inhibition at 10 µM (SK-OV-3) of less than 15%, an inhibition at 10 µM (SNB-75) of less than 15% and an inhibition at 10 µM (786-0) of less than 15%. It also gave an inhibition at 10 µM (COLO-205) of less than 15%, an inhibition at 10 µM (CCRF-CEM) of less than 15% and an inhibition at 10 µM (NCI/ADR-RES) of less than 15%. For the same compound, the inhibition at 10 µM (PC-3) was less than 15%, the inhibition at 10 µM (SR) was less than 15% and the inhibition at 10 µM (TK-10) was less than 15%. The inhibition at 10 µM (RPMI-8226) was less than 15%, the inhibition at 10 µM (MOLT-4) was less than 15% and the inhibition at 10 µM (OVCAR-3) was less than 15%. It also gave an inhibition at 10 µM (A549/ATCC) of less than 15%, an inhibition at 10 µM (A498) of 10.2% and an inhibition at 10 µM (SW-620) of less than 15%. For the same compound, the inhibition at 10 µM (DU-145) was less than 15%, the inhibition at 10 µM (SNB-19) was less than 15% and the inhibition at 10 µM (EKVX) was less than 15%. For the same compound, the “antiproliferative activity against all tested cell lines” value [1] was “did not show activity”, the inhibition at 10 µM [1] was less than 0% and the inhibition at 10 µM (HL-60(TB)) was less than 15%. The inhibition at 10 µM (NCI-H226) was less than 15%, the inhibition at 10 µM (UACC-62) was less than 15% and the inhibition at 10 µM (HOP-62) was less than 15%. It also gave an inhibition at 10 µM (HCT-15) of less than 15%, an inhibition at 10 µM (NCI-H522) of less than 15% and an inhibition at 10 µM (SK-MEL-5) of less than 15%. For the same compound, the inhibition at 10 µM (MCF7) was less than 15%, the inhibition at 10 µM (SF-295) was less than 15% and the inhibition at 10 µM (IGROV1) was less than 15%. The inhibition at 10 µM (ACHN) was less than 15%, the inhibition at 10 µM (MDA-MB-468) was less than 15% and the inhibition at 10 µM (U251) was less than 15%. The inhibition at 10 µM (MDA-MB-435) was less than 15%, the inhibition at 10 µM (HCC-2998) was less than 15% and the inhibition at 10 µM (HT29) was less than 15%. For the same compound, the inhibition at 10 µM (NCI-H460) was less than 15%, the inhibition at 10 µM (K-562) was less than 15% and the inhibition at 10 µM (BT-549) was less than 15%. For the same compound, the inhibition at 10 µM (HCT-116) was less than 15%, the inhibition at 10 µM (SF-539) was less than 15% and the inhibition at 10 µM (SN12C) was less than 15%. The inhibition at 10 µM (SK-MEL-28) was less than 15% and the inhibition at 10 µM (NCI-H322M) was less than 15%.

From PMC9518264, “Design and synthesis of novel quinazolinone-based derivatives as EGFR inhibitors with antitumor activity” (Journal of Enzyme Inhibition and Medicinal Chemistry, 2022)
